In patent publication US9566312B2, “Cyclic peptides and use as medicines” (priority 2012, dated 2017):
pIC50: −log10 of the molar value. Read-outs that look alike come from different tables or passages of the source. Starred links: 1 amine or outer side, 2 acyl side, 3 side chain; linkers in the order of their positions; H or OH if unused. Non-standard residues stand in square brackets, D forms with d. Residues, ends and D or L forms follow the SMILES beside them. X75 = C[C@H](CCC(C)(C)OC(=O)N1CCN(C)CC1)[C@@H](C(=O)[*:2])N(C)[*:1]; X31 = C[C@H](CN1C[C@H](C)OC[C@@H]1C)[C@@H](C(=O)[*:2])N(C)[*:1]; X29 = CC(=O)N1CCN(C[C@@H](C)[C@@H](C(=O)[*:2])N(C)[*:1])CC1; X49 = C[C@H](CCC(=O)N1CCN(C)CC1)[C@@H](C(=O)[*:2])N(C)[*:1]; X67 = C[C@H](CCN1CCOC[C@@H]1C)[C@@H](C(=O)[*:2])N(C)[*:1]; X46 = C[C@H](CN1CC2CCC(C1)O2)[C@@H](C(=O)[*:2])N(C)[*:1]; X32 = C[C@H](CN1CC2(COC2)C1)[C@@H](C(=O)[*:2])N(C)[*:1]; X53 = C[C@H](CN(C)Cc1cccnc1)[C@@H](C(=O)[*:2])N(C)[*:1]; MeBmt = C/C=C/C[C@@H](C)[C@@H](O)[C@H](NC)C(=O)O; NMeL = CN[C@@H](CC(C)C)C(=O)O; NMeV = CN[C@H](C(=O)O)C(C)C; dNMeA = CN[C@H](C)C(=O)O; Abu = CC[C@H](N)C(=O)O

Experiments:
[1] = system: genotype 1b subgenomic HCV replicon in Huh7.5 cells; assay type: cell-based, hepatitis C virus; details: read-out: RPLN-1b IC50
Procedure, shortened: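 Replicon inhibition read as renilla luciferase signal versus DMSO controls after 72 h incubation, in Huh7.5 cells harbouring a genotype 1b subgenomic replicon; medium phenol red-free DMEM lacking G418. CC50 determined in parallel via Cell Titer-Glo.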

[2] = target: CypF (Homo sapiens (Human), UniProt P30405); assay: Inhibitor binding to cyclophilin proteins by SPR, CypF; details: 1:1 binding model
Chain of CypF (P30405 30-207): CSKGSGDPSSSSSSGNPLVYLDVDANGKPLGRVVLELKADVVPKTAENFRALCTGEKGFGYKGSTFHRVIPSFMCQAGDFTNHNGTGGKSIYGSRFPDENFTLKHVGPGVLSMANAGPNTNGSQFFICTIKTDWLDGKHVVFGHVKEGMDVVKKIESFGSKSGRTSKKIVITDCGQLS
Procedure, shortened: (§1)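 Mono-biotinylated avi-tagged cyclophilins were captured on a Biotin CAPture chip and compound injected by single-cycle kinetics in 10 mM HEPES pH 7.4, 150 mM NaCl, 0.05% P20, 3% DMSO. Contact 1 min per concentration at 50 μL/min, 10 min final dissociation; 1:1 model fit gave kon, koff, KD.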

[3] = system: peripheral blood mononuclear cells (PBMC); assay: Anti-proliferative or immunosuppressive activity, BrdU incorporation in PHA-stimulated PBMC; assay type: cell-based; details: PHA 3 μg/ml, 60 hour compound treatment; read-out: EMV PBMC IC50
Procedure, shortened: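 BrdU ELISA read-out of DNA synthesis in freshly isolated PBMCs (two donors, 30,000 cells/well, X-VIVO 15). T-cell proliferation triggered with phytohemagglutinin at 3 μg/ml.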

[4] = target: organic anion transporting polypeptide 1B1 (OATP1B1) (Homo sapiens (Human), UniProt Q9Y6L6); assay: OATP assay in CHO-OATP1B1 cells;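 note: inhibition of probe substrate uptake into the cells, ten minutes exposure, accumulated substrate read by fluorescence once cells were lysed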
Chain of organic anion transporting polypeptide 1B1 (OATP1B1) (Q9Y6L6 whole entry): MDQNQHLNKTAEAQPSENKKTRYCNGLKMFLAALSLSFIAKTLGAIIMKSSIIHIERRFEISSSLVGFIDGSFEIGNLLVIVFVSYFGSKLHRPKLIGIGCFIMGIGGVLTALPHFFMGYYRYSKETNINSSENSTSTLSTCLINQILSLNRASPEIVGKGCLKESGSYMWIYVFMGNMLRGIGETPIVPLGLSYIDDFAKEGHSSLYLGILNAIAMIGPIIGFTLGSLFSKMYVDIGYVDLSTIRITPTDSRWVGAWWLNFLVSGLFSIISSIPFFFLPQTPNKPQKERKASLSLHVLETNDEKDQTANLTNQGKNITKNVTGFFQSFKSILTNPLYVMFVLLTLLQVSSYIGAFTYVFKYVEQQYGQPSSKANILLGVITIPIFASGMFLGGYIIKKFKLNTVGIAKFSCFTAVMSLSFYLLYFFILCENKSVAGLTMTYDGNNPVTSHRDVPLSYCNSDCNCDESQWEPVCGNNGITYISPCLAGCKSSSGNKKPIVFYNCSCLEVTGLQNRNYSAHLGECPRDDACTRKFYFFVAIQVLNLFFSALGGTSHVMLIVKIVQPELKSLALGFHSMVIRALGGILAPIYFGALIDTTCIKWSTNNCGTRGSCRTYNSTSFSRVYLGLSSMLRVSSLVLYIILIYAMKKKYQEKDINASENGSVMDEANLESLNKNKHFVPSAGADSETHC

[5] = target: cyclophilin B (CypB) (Homo sapiens (Human), UniProt P23284); assay: Inhibitor binding to cyclophilin proteins by SPR, CypB; design: unit not given here; details: 1:1 binding model
Chain of cyclophilin B (CypB) (P23284 34-216): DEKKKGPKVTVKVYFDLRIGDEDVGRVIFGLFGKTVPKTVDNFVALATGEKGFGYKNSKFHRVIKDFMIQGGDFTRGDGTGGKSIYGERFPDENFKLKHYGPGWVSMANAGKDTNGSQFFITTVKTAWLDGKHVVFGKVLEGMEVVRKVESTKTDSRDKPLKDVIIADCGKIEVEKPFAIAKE
Procedure, shortened: as §1

[6] = target: cyclophilin A (CypA) (Homo sapiens (Human), UniProt P62937); assay: Inhibitor binding to cyclophilin proteins by SPR, CypA; design: unit not given here; details: 1:1 binding model;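 note: Single-cycle kinetics on a Biacore T200, compound injected at several concentrations for 1 min each at 50 µL/min, then 10 min dissociation, in HEPES pH 7.4 buffer with 3% DMSO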
Chain of cyclophilin A (CypA) (P62937 whole entry): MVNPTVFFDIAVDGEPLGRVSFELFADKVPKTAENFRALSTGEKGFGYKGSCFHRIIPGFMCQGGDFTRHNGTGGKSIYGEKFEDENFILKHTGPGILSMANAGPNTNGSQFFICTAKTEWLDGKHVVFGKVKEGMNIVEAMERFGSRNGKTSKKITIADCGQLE

[7] = genotype 1b replicon, 72 h incubation

SMILES | pIC50 [1] | CypF Kd [2] [nM] | pIC50 [3] | pIC50 [4] | CypB Kd [5] | CypA Kd [6] | pIC50 [1, 7]
C/C=C/C[C@@H](C)[C@@H](O)[C@H]1C(=O)N[C@@H](CC)C(=O)N(C)[C@H](C)C(=O)N(C)[C@@H]([C@H](C)CN2CC3CCC(C2)O3)C(=O)N[C@@H](C(C)C)C(=O)N(C)[C@@H](CC(C)C)C(=O)N[C@@H](C)C(=O)N[C@H](C)C(=O)N(C)[C@@H](CC(C)C)C(=O)N(C)[C@@H](CC(C)C)C(=O)N(C)[C@@H](C(C)C)C(=O)N1C [Compound 2.5.3, 3-[D-Ala]-4-[(2S,3R)-4-(8-oxa-3-azabicyclo[3.2.1]octan-3-yl)-3-methyl-2-(methylamino)butanoyl]-cyclosporin] (cyclo([MeBmt][Abu][dNMeA][X46]V[NMeL]A[dA][NMeL][NMeL][NMeV])) | 7.38 | 1.4 | 5.24 | 5.77 | 1.8 | 2.4 | 
C/C=C/C[C@@H](C)[C@@H](O)[C@H]1C(=O)N[C@@H](CC)C(=O)N(C)[C@H](C)C(=O)N(C)[C@@H]([C@H](C)CN2C[C@H](C)OC[C@@H]2C)C(=O)N[C@@H](C(C)C)C(=O)N(C)[C@@H](CC(C)C)C(=O)N[C@@H](C)C(=O)N[C@H](C)C(=O)N(C)[C@@H](CC(C)C)C(=O)N(C)[C@@H](CC(C)C)C(=O)N(C)[C@@H](C(C)C)C(=O)N1C [Compound 2.5.6, 3-[D-Ala]-4-[(2S,3R)-4-((2S,5S)-2,5-dimethylmorpholino)-3-methyl-2-(methylamino)butanoyl]-cyclosporin] (cyclo(A[dA][NMeL][NMeL][NMeV][MeBmt][Abu][dNMeA][X31]V[NMeL])) |  | 2.5 | 5.47 | 5.59 | 2.7 | 5.0 | 7.46
C/C=C/C[C@@H](C)[C@@H](O)[C@H]1C(=O)N[C@@H](CC)C(=O)N(C)[C@H](CCCO)C(=O)N(C)[C@@H]([C@H](C)CS(C)(=O)=O)C(=O)N[C@@H](C(C)C)C(=O)N(C)[C@@H](CC(C)C)C(=O)N[C@@H](C)C(=O)N[C@H](C)C(=O)N(C)[C@@H](CC(C)C)C(=O)N(C)[C@@H](CC(C)C)C(=O)N(C)[C@@H](C(C)C)C(=O)N1C (stereo in doubt) [Compound 3.4.1, 3-[(R)-5-hydroxy-2-(methylamino)pentanoyl]-4-[(2S,3S)-3-methyl-2-(methylamino)-4-(methylsulfonyl)butanoyl]-cyclosporin] |  | 3.8 | 5.24 | 5.57 | 2.8 | 7.0 | 5.35
C/C=C/C[C@@H](C)[C@@H](O)[C@H]1C(=O)N[C@@H](CC)C(=O)N(C)[C@H](C)C(=O)N(C)[C@@H]([C@H](C)CCC(C)(C)OC(=O)N2CCN(C)CC2)C(=O)N[C@@H](C(C)C)C(=O)N(C)[C@@H](CC(C)C)C(=O)N[C@@H](C)C(=O)N[C@H](C)C(=O)N(C)[C@@H](CC(C)C)C(=O)N(C)[C@@H](CC(C)C)C(=O)N(C)[C@@H](C(C)C)C(=O)N1C [Compound 2.12.2, 3-[D-Ala]-4-[(2S,3R)-3,6-dimethyl-2-(methylamino)-6-((4-methylpiperazine-1-carbonyl)oxy)heptanoyl]-cyclosporin] (cyclo(A[dA][NMeL][NMeL][NMeV][MeBmt][Abu][dNMeA][X75]V[NMeL])) |  | 10 | 4.94 | 5.33 | 6.8 | 22 | 6.74
C/C=C/C[C@@H](C)[C@@H](O)[C@H]1C(=O)N[C@@H](CC)C(=O)N(C)[C@H](C)C(=O)N(C)[C@@H]([C@H](C)CCC(=O)N2CCN(C)CC2)C(=O)N[C@@H](C(C)C)C(=O)N(C)[C@@H](CC(C)C)C(=O)N[C@@H](C)C(=O)N[C@H](C)C(=O)N(C)[C@@H](CC(C)C)C(=O)N(C)[C@@H](CC(C)C)C(=O)N(C)[C@@H](C(C)C)C(=O)N1C [Compound 2.14.3, 3-[D-Ala]-4-[(2S,3R)-3-methyl-2-(methylamino)-6-(4-methylpiperazin-1-yl)-6-oxohexanoyl]-cyclosporin] (cyclo(A[dA][NMeL][NMeL][NMeV][MeBmt][Abu][dNMeA][X49]V[NMeL])) |  | 0.9 | 4.85 | 5.27 | 0.9 | 2.0 | 6.72
C/C=C/C[C@@H](C)[C@@H](O)[C@H]1C(=O)N[C@@H](CC)C(=O)N(C)[C@H](C)C(=O)N(C)[C@@H]([C@H](C)CCCN2CCC(OC)CC2)C(=O)N[C@@H](C(C)C)C(=O)N(C)[C@@H](CC(C)C)C(=O)N[C@@H](C)C(=O)N[C@H](C)C(=O)N(C)[C@@H](CC(C)C)C(=O)N(C)[C@@H](CC(C)C)C(=O)N(C)[C@@H](C(C)C)C(=O)N1C (stereo in doubt) [Compound 2.19.5, 3-[D-Ala]-4-[(2S,3R)-6-(4-methoxypiperidin-1-yl)-3-methyl-2-(methylamino)hexanoyl]-cyclosporin] |  | 0.4 | 5.05 | 5.37 | 0.5 | 0.7 | 7.10
C/C=C/C[C@@H](C)[C@@H](O)[C@H]1C(=O)N[C@@H](CC)C(=O)N(C)[C@H](C)C(=O)N(C)[C@@H]([C@H](C)CN2CC3(COC3)C2)C(=O)N[C@@H](C(C)C)C(=O)N(C)[C@@H](CC(C)C)C(=O)N[C@@H](C)C(=O)N[C@H](C)C(=O)N(C)[C@@H](CC(C)C)C(=O)N(C)[C@@H](CC(C)C)C(=O)N(C)[C@@H](C(C)C)C(=O)N1C [Compound 2.5.16, 3-[D-Ala]-4-[(2S,3R)-3-methyl-2-(methylamino)-4-(2-oxa-6-azaspiro[3.3]heptan-6-yl)butanoyl]-cyclosporin] (cyclo(A[dA][NMeL][NMeL][NMeV][MeBmt][Abu][dNMeA][X32]V[NMeL])) |  | 0.7 | 4.74 | 5.47 | 0.7 | 1.4 | 8.00
C/C=C/C[C@@H](C)[C@@H](O)[C@H]1C(=O)N[C@@H](CC)C(=O)N(C)[C@H](C)C(=O)N(C)[C@@H]([C@H](C)CN(C)Cc2cccnc2)C(=O)N[C@@H](C(C)C)C(=O)N(C)[C@@H](CC(C)C)C(=O)N[C@@H](C)C(=O)N[C@H](C)C(=O)N(C)[C@@H](CC(C)C)C(=O)N(C)[C@@H](CC(C)C)C(=O)N(C)[C@@H](C(C)C)C(=O)N1C [Compound 2.5.25, 3-[D-Ala]-4-[(2S,3R)-3-methyl-4-(methyl(pyridin-3-ylmethyl)amino)-2-(methylamino)butanoyl]-cyclosporin] (cyclo(A[dA][NMeL][NMeL][NMeV][MeBmt][Abu][dNMeA][X53]V[NMeL])) |  | 1 | 5.25 | 6.00 | 1.0 | 1.8 | 7.66
C/C=C/C[C@@H](C)[C@@H](O)[C@H]1C(=O)N[C@@H](CC)C(=O)N(C)[C@H](C)C(=O)N(C)[C@@H]([C@H](C)CCN2CCOC[C@@H]2C)C(=O)N[C@@H](C(C)C)C(=O)N(C)[C@@H](CC(C)C)C(=O)N[C@@H](C)C(=O)N[C@H](C)C(=O)N(C)[C@@H](CC(C)C)C(=O)N(C)[C@@H](CC(C)C)C(=O)N(C)[C@@H](C(C)C)C(=O)N1C [Compound 2.18.4] (cyclo(A[dA][NMeL][NMeL][NMeV][MeBmt][Abu][dNMeA][X67]V[NMeL])) |  | 0.7 | 4.97 | 5.77 | 0.7 | 1.2 | 7.36
C/C=C/C[C@@H](C)[C@@H](O)[C@H]1C(=O)N[C@@H](CC)C(=O)N(C)[C@H](C)C(=O)N(C)[C@@H]([C@H](C)CN2CCN(C(C)=O)CC2)C(=O)N[C@@H](C(C)C)C(=O)N(C)[C@@H](CC(C)C)C(=O)N[C@@H](C)C(=O)N[C@H](C)C(=O)N(C)[C@@H](CC(C)C)C(=O)N(C)[C@@H](CC(C)C)C(=O)N(C)[C@@H](C(C)C)C(=O)N1C [Compound 2.5.23, 3-[D-Ala]-4-[(2S,3R)-4-(4-acetylpiperazin-1-yl)-3-methyl-2-(methylamino)butanoyl]-cyclosporin] (cyclo(A[dA][NMeL][NMeL][NMeV][MeBmt][Abu][dNMeA][X29]V[NMeL])) |  | 0.8 | 4.64 | 5.64 | 0.7 | 1.6 | 7.33
